Laboratory results published in patent US20030119800A1, “Bone anabolic compounds and methods of use” (priority 2001, published 2003).
Starred links: 1 amine or outer side, 2 acyl side, 3 side chain; linkers in the order of their positions; H or OH if unused. Positions of bridges follow the written chain, without caps; N, C: chain ends. Non-standard residues stand in square brackets, D forms with d. Residues, ends and D or L forms follow the SMILES beside them. Chains are numbered I, II in the order given. Actinocin(9to1) = Cc1c2oc3c(C)ccc(C(=O)[*:1])c3nc-2c(C(=O)[*:2])c(N)c1=O; NMeV = CN[C@H](C(=O)O)C(C)C; Sar = CNCC(=O)O

Tests used:
[1] = tested on: cells from mice lacking both ERα and ERβ (DERKO); settings: cited from earlier work
[2] = tested on: calvaria-derived murine osteoblastic cells; experiment: Etoposide-induced apoptosis of calvaria-derived osteoblastic cells; type: cell-based, mouse; settings: for effect of synthesis inhibitor on the protective effect of E2 on etoposide-induced apoptosis: murine calvaria derived osteoblasts, doses not affecting cell viability, data not shown; for difference in potency in osteoblasts from one sex versus the other: cell preparations from females or males; for etoposide-induced apoptosis in primary cultures of osteoblasts: cells from female or male mice, dose dependent manner
Source text: HeLa cells were co-transfected with reporter constructs in which SRE or AP-1 drive the expression of secreted alkaline phosphatase (SEAP), along with the wild type ERα (A and B); or its ligand binding domain (E), or E fused to a membrane (E-Mem) or nuclear (E-Nuc) localization sequence (A). A dominant negaitve (dn) MEK or dn Jnk were also introduced into a subset of the ERα transfected cells. […] In FIGS. 1A and 1B, 100% indicates activity in vehicle treated cells. (C) HeLa cells were co-transfected with the ERα and nEGFP and wild type or dn mutants of the indicated transcription factors. […] (D) HeLa cells (upper panel) were transiently co-transfected with the ERα, a nonphosphorylatable dn mutant of Bad. Calvaria-derived murine osteoblastic cells (lower panel) were pre-treated with the P13K inhibitor wortmannin. Cells were then treated as in (C). […] (E) Proposed model for a kinase-mediated non-genotropic regulation of gene transcription and apoptosis by sex steroids.
(§1) Osteoblastic cells (A) were isolated from calvaria of neonatal female or male mice, the sex of which was determined by Southern blot analysis of liver DNA with a Y chromosome specific cDNA probe; and cultured as previously described. The ability of the indicated steroids to protect against etoposide induced apoptosis was determined as in FIG. 1D, lower panel. (B) Osteoclasts were generated in bone marrow cultures from adult female or male mice, and then treated with vehicle or the indicated concentrations of steroids for 24 hours at which point the number of cells undergoing apoptosis was determined. Representative results from 1 of 4 females and 1 of 4 males examined are shown. Each point represents the mean of triplicate determinations±SD. *p<0.05 vs. vehicle, by ANOVA. (C & D) Eight-month old Swiss Webster mice (n=8-10 per group) were sham-operated, ovariectomized (OVX) or orchidectomized (ORX). […] BMD and wet uterine or seminal vesicle weight was determined six weeks later. Bars indicate means±SD. *p<0.05 vs OVX or ORX.
(§2) Quantification of apoptotic cells in vitro: Apoptosis of HeLa cells or calvaria-derived osteoblastic cells was quantified by direct visualization of changes in nuclear morphology or by trypan blue staining, respectively, as previously described (Kousteni et al, 2001). Apoptosis of osteoclasts, derived from bone marrow cells cultured with 30 ng/ml M-CSF and 30 ng/ml soluble RANK ligand, was quantified by measuring caspase 3 activity as previously described (Weinstein et al, 2002).

[3] = tested on: osteoclasts generated in bone marrow cultures from adult female or male mice; experiment: Osteoclast apoptosis in bone marrow derived cultures; type: cell-based, mouse
Protocol: as §1
FIG. 8 illustrates the pro-apoptotic effect of sex steroids on osteoclasts requires Src/ERK signaling. […] After 24 hours, the percentage of apoptotic osteoclasts was determined as in FIG. 7.
as §2

[4] = tested on: Bad; experiment: E2-induced phosphorylation of Bad; type: cell-based; settings: studies not shown (Kousteni et al, 2002)
[5] = tested on: DERKO mice; settings: mouse, in vivo; cited from earlier work
[6] = tested on: OVX or ORX Swiss Webster mice; experiment: Gonadectomized (OVX or ORX) Swiss Webster mice with 60-day slow release pellets: bone and reproductive tissues; type: in vivo, mouse; settings: for gonadectomy-induced changes (osteoblast apoptosis, loss of BMD, osteoblastogenesis and osteoclastogenesis): replacement dose pellets (E2 0.025 mg, DHT 10 mg), OVX or ORX, irrespective of sex
Protocol: as §1
FIG. 9 illustrates the equivalence of the skeletal actions of estrogens and androgens in female and male mice. […] Six weeks later, osteoblast apoptosis in histologic sections of the vertebrae (A), osteoblastogenesis and osteoclastogenesis in ex vivo bone marrow cultures (B and C), and serum osteocalcin concentration (D) were determined. Bars indicate means±SD, *p<0.05 vs OVX or ORX.
Global, spine and hindlimb BMD was determined at both 4 and 6 weeks later in the experiment with the 8 month old females, and at 6 weeks only in the experiments with the 6 month old females and males (A, B and C). The 6 week BMD data in females (B) represent pooled values from the two experiments with the 6- and the 8-month old mice.
Longitudinal undecalcified sections of the distal femur are shown in (B). […] Osteoblast apoptosis in sections of L1-L4 vertebrae from females (8 month old) and males (C).
Histomorphometric analysis of L1-L4 vertebrae from 6 month old females (A-F) and pooled serum osteocalcin levels from the 6 and 8 month old females (G). […] The ANGELS compounds described herein are useful for maintaining and/or increasing bone mass and/or strength and/or density in mammals. Mammals, preferably humans, in need of such compounds can include those suffering from such conditions as female osteoporosis (post menopausal), male osteoporosis, glucocorticoid-induced osteoporosis, immobilization and aging-related osteoporosis, idiopathic or juvenile osteoporosis, transplantation-related osteoporosis, and alveolar ridge bone loss. In addition, the compounds described herein are particularly useful for administration to subjects that are unable or unwilling to tolerate therapies that have a masculinizing or feminizing effect. For example, subjects such as breast cancer patients (especially those with bone metastasis on gonadotropin […] hormone (GnRH) or ovariectomized), prostrate cancer patients (especially those on GnRH/castration therapy), and myeloma/lymphoma patients are frequently poor candidates for treatment with estrogen or androgens because of the risk of a recurrence of the underlying condition, e.g., cancer.
Wet uterine (A) or seminal vesicle weight (B) of female and male mice described in FIG. 11. […] Note the following morphologic differences in the uteri of OVX- and OVX+4-estren-3α,17β-diol-treated mice as compared to uteri from sham-operated and OVX+E2-treated mice: thin and atrophic columnar epithelium; compact stroma; decreased number of glands; decreased nucleus to cytoplasmic ratio in the columnar epithelial, endometrial stroma, and myometrial cells; and absence of mitotic activity. (D) Proliferation of MCF-7 cells was determined by ^3H-thymidine uptake.
For these studies, mature Swiss Webster mice (8 month old), n=8-10 per group, were sham-operated or gonadectomized (GNDX). […]

[7] = biological target: T1, ERα (Homo sapiens, UniProt P03372); experiment: SRE-SEAP and AP-1-SEAP reporter assays in HeLa cells transfected with ERα; type: cell-based; settings: steroids 10^−8 M for 15 minutes (E2 as little as five minutes), SEAP six hours later
T1 construct: HeLa cells transfected with the full length ERα; expressed in transfected cells; host or cells: HeLa
T1 sequence (P03372 whole entry): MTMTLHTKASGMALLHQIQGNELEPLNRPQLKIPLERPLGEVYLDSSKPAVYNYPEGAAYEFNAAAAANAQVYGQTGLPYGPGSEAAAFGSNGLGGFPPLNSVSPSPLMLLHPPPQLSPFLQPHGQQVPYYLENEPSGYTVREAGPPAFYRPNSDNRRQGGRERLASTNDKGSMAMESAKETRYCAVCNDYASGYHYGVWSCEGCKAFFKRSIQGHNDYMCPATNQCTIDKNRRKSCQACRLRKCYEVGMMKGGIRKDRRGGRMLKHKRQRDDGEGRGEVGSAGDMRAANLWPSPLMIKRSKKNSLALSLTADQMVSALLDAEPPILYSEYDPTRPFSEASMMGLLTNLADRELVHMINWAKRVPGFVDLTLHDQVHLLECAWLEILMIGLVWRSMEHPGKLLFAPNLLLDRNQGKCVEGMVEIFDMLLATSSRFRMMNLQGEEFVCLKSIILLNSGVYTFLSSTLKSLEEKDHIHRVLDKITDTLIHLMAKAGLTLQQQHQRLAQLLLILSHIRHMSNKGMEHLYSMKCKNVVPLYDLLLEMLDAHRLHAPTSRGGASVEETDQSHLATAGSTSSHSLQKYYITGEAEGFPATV
Protocol: HeLa cells were co-transfected with reporter constructs in which SRE or AP-1 drive the expression of secreted alkaline phosphatase (SEAP), along with the wild type ERα (A and B); or its ligand binding domain (E), or E fused to a membrane (E-Mem) or nuclear (E-Nuc) localization sequence (A). A dominant negaitve (dn) MEK or dn Jnk were also introduced into a subset of the ERα transfected cells. Cells were exposed to vehicle or the indicated steroids (10^−8M) for 15 minutes. The steroid containing media were then removed, the cells were washed twice, and the cultures were continued in fresh medium without steroids. Supernatants were collected six hours later and SEAP activity was assayed. In FIGS. 1A and 1B, 100% indicates activity in vehicle treated cells. (C) HeLa cells were co-transfected with the ERα and nEGFP and wild type or dn mutants of the indicated transcription factors. […] (D) HeLa cells (upper panel) were transiently co-transfected with the ERα, a nonphosphorylatable dn mutant of Bad. […] Cells were then treated as in (C).
Transient transfections and reporter assays: HeLa cells were transfected using Lipofectamine Plus (Life Technologies Inc.). For reporter assays (luciferase or secreated alkaline phosphatase SEAP), serum-starved cells were treated with the indicated steroids for 15 min after which the steroid-containing media were removed, cells washed twice with 1% BSA in PBS, and fresh media without steroid were added. SEAP or luciferase assays were performed 6 h later using the Great EscAPe SEAP Chemiluminescence Kit (Clontech, Palo Alto, Calif.) or the dual luciferase Kit (Promega, Madison, Wis.), respectively, according to the manufacturer's instructions. Both reporter activities were normalized to renilla luciferase activity.

## C[C@]12CC[C@@H]3c4ccc(O)cc4C[C@@H](CCCCCCCCC[S+]([O-])CCCC(F)(F)C(F)(F)F)[C@H]3[C@@H]1CC[C@@H]2O (stereo partly drawn) [ICI 182,780]
[1]
  effect of antagonist on the effects of E2 in the DERKO cells: prevented
[2]
  effect of antagonist on the effects of E2 or DHT on the lifespan of osteoblasts: blocked
[3]
  effect of antagonist on the effects of E2 or DHT on the lifespan of osteoclasts: blocked

## COc1cccc(-c2cc(=O)c3ccccc3o2)c1N [PD98059]
[4]
  effect of inhibitor on E2-induced phosphorylation of Bad: abolished

## Cc1c2oc3c(C)ccc(C(=O)N[C@@H]4C(=O)N[C@H](C(C)C)C(=O)N5CCC[C@H]5C(=O)N(C)CC(=O)N(C)[C@@H](C(C)C)C(=O)O[C@@H]4C)c3nc-2c(C(=O)N[C@@H]2C(=O)N[C@H](C(C)C)C(=O)N3CCC[C@H]3C(=O)N(C)CC(=O)N(C)[C@@H](C(C)C)C(=O)O[C@@H]2C)c(N)c1=O [actinomycin D] (I: T[dV]P[Sar][NMeV] / II: T[dV]P[Sar][NMeV]; ester I:1-I:C, II:1-II:C; linker I:N-II:N via Actinocin(9to1))
[2]
  effect of synthesis inhibitor on the protective effect of E2 on etoposide-induced apoptosis: abrogated

## C[C@]12CC[C@@H]3c4ccc(O)cc4CC[C@H]3[C@@H]1CC[C@@H]2O [E2, 17β-estradiol]
[5]
  bone loss following OVX in DERKO mice: prevented
[1]
  ERK phosphorylation in DERKO cells: stimulates
  osteoblast apoptosis in DERKO cells: prevents
  osteoclast apoptosis in DERKO cells: stimulates
[2]
  difference in potency in osteoblasts from one sex versus the other: no difference
  etoposide-induced apoptosis in primary cultures of osteoblasts: attenuated etoposide-induced apoptosis
[3]
  difference in potency in osteoclasts from females and males: no difference
[6]; 4-estren-3α,17β-diol 7.6 mg pellet, E2 pharmacologic dose 100× the replacement dose
  effect on the bone marrow cavity: closing the bone marrow cavity
[6]; 4-estren-3α,17β-diol at 300× ERT versus vehicle or E2 1× ERT, E2 at 100× ERT
  longitudinal undecalcified sections of the distal femur: cancellous sclerosis
[6]; ORX males, pellets E2 0.025 mg or 4-estren-3α,17β-diol 7.6 mg
  seminal vesicle weight: failed to restore
[6]; as compared to the OVX group
  osteoclast number: suppressed
  rate of bone formation: suppressed
[6]
  gonadectomy-induced changes (osteoblast apoptosis, loss of BMD, osteoblastogenesis and osteoclastogenesis): effectively prevented

## C[S+]([O-])c1ccc(-c2nc(-c3ccncc3)c(-c3ccc(F)cc3)[nH]2)cc1 (stereo not drawn) [SB203580]
[2]; FIG. 1D, pre-treated calvaria-derived murine osteoblastic cells
  effect of kinase inhibitor on the anti-apoptotic effect of E2 and of 4-estren-3α,17β-diol: not

## C[C@@H]1C[C@@H]([C@H](O)CC2CC(=O)NC(=O)C2)C(=O)[C@@H](C)C1 [cyclohexamide]
[2]
  effect of synthesis inhibitor on the protective effect of E2 on etoposide-induced apoptosis: abrogated

## c1cn[nH]c1 [pyrazole]
[7]
  AP-1-dependent transcriptional activity (AP-1-SEAP): not
  SRE-dependent transcriptional activity (SRE-SEAP): not

## C[C@]12CCC(=O)C[C@@H]1CC[C@@H]1[C@@H]2CC[C@]2(C)[C@@H](O)CC[C@@H]12 [DHT, dyhydrotestosterone]
[2]
  difference in potency in osteoblasts from one sex versus the other: no difference
  etoposide-induced apoptosis in primary cultures of osteoblasts: attenuated etoposide-induced apoptosis
[3]
  difference in potency in osteoclasts from females and males: no difference
[6]; L5, ORX
  bone compression strength in the vertebrae, male mice: equally effective
[6]; ORX males, 6 weeks
  BMD values in the spine versus the untreated ORX group: not
[6]; OVX females, pellets DHT 10 mg or 4-estren-3α,17β-diol 7.6 mg
  wet uterine weight: did restore
[6]
  gonadectomy-induced changes (osteoblast apoptosis, loss of BMD, osteoblastogenesis and osteoclastogenesis): effectively prevented

## Cc1ccc(-c2nn(C(C)(C)C)c3ncnc(N)c23)cc1 [PP1]
[3]; pre-treatment for 1 hour prior to E2 or DHT
  effect of inhibitor on the pro-apoptotic effects of the sex steroids and 4-estren-3α,17β-diol on osteoclasts: abrogated
